Test results as given in patent publication US12715849B2, “Herbicidal tetrazole compounds” (SYNGENTA CROP PROTECTION AG, priority 2020, dated 2026).

How the values were obtained:
Type in all cases: in vivo
[1] = system: Echinochloa crus-galli (ECHCG); experiment: Glasshouse herbicidal test, pre- and post-emergence (Table B1); settings: 130 g/h, evaluated after 13 days; for percentage damage caused to the plant, POST Application ECHCG: post-emergence; for percentage damage caused to the plant, PRE Application ECHCG: pre-emergence
Procedure: (§1) Seeds of a variety of test species are sown in standard soil in pots (Lolium perenne (LOLPE), Amaranthus retoflexus (AMARE), Amaranthus palmeri (AMAPA), Ablution theophrasti (ABUTH), Setaria faberi (SETFA), Echinochloa crus-galli (ECHCG), Ipomoea hederacea (IPOHE)). After cultivation for one day (pre-emergence) or after 8 days cultivation (post-emergence) under controlled conditions in a glasshouse (at 24/16° C., day/night; 14 hours light; 65% humidity), the plants are sprayed with an aqueous spray solution derived from the formulation of the technical active ingredient in acetone/water (50:50) solution containing 0.5% Tween 20 (polyoxyethelyene sorbitan monolaurate, CAS RN 9005-64-5). Compounds are applied at 130 g/h unless otherwise indicated. The test plants are then grown in a glasshouse under controlled conditions in a glasshouse (at 24/16° C., day/night; 14 hours light; 65% humidity) and watered twice daily. After 13 days for pre and post-emergence, the test is evaluated for the percentage damage caused to the plant. The biological activities are shown in the following table on a five-point scale (5=80-100%; 4=60-79%; 3=40-59%; 2=20-39%; 1=0-19%).

Setaria faberi (SETFA) = experiment: as above; settings: 130 g/h, evaluated after 13 days; for percentage damage caused to the plant, POST Application SETFA: post-emergence; for percentage damage caused to the plant, PRE Application SETFA: pre-emergence
Procedure: as §1

[2] = system: Ipomoea hederacea (IPOHE); experiment: as above; settings: 130 g/h, evaluated after 13 days; for percentage damage caused to the plant, POST Application IPOHE: post-emergence; for percentage damage caused to the plant, PRE Application IPOHE: pre-emergence
Procedure: as §1

[3] = system: Amaranthus retoflexus (AMARE); experiment: as above; settings: 130 g/h, evaluated after 13 days; for percentage damage caused to the plant, POST Application AMARE: post-emergence; for percentage damage caused to the plant, PRE Application AMARE: pre-emergence
Procedure: as §1

[4] = system: Amaranthus palmeri (AMAPA); experiment: as above; settings: 130 g/h, evaluated after 13 days; for percentage damage caused to the plant, PRE Application AMAPA: pre-emergence; for percentage damage caused to the plant, POST Application AMAPA: post-emergence
Procedure: as §1

SETFA (Setaria faberi) = experiment: Comparative test, pre-emergence (Table B2); settings: after 14 days
[5] = system: IPOHE (Ipomoea hederacea); experiment: Comparative test, pre-emergence (Table B2); settings: after 14 days
[6] = system: AMARE (Amaranthus retoflexus); experiment: Comparative test, pre-emergence (Table B2); settings: after 14 days
[7] = system: ECHCG (Echinochloa crus-galli); experiment: Comparative test, pre-emergence (Table B2); settings: after 14 days
[8] = system: Ablution theophrasti (ABUTH); experiment: Glasshouse herbicidal test, pre- and post-emergence (Table B1); settings: 130 g/h, evaluated after 13 days; for percentage damage caused to the plant, POST Application ABUTH: post-emergence; for percentage damage caused to the plant, PRE Application ABUTH: pre-emergence
Procedure: as §1

Cc1c(C(=O)Nc2nnnn2C)ccc(OC(F)(F)F)c1NS(C)(=O)=O [Compound 1.075]
percentage damage caused to the plant, POST Application ECHCG [1]: 5 (5=80-100%) | percentage damage caused to the plant, PRE Application ECHCG [1]: 5 (5=80-100%) | percentage damage caused to the plant, POST Application SETFA (Setaria faberi (SETFA)): 5 (5=80-100%) | percentage damage caused to the plant, PRE Application SETFA (Setaria faberi (SETFA)): 4 (4=60-79%) | percentage damage caused to the plant, POST Application IPOHE [2]: 5 (5=80-100%) | percentage damage caused to the plant, PRE Application IPOHE [2]: 3 (3=40-59%) | percentage damage caused to the plant, POST Application AMARE [3]: 5 (5=80-100%) | percentage damage caused to the plant, PRE Application AMARE [3]: 5 (5=80-100%) | percentage damage caused to the plant, PRE Application AMAPA [4]: 5 (5=80-100%) | damage to plant (100 = total damage; 0 = no damage), PRE Application SETFA (SETFA (Setaria faberi); rate 31 g/ha): 30 | damage to plant (100 = total damage; 0 = no damage), PRE Application SETFA (SETFA (Setaria faberi); rate 130 g/ha): 60 | damage to plant (100 = total damage; 0 = no damage), PRE Application IPOHE ([5]; rate 31 g/ha): 40 | damage to plant (100 = total damage; 0 = no damage), PRE Application IPOHE ([5]; rate 130 g/ha): 50 | damage to plant (100 = total damage; 0 = no damage), PRE Application AMARE ([6]; rate 31 g/ha): 80 | damage to plant (100 = total damage; 0 = no damage), PRE Application AMARE ([6]; rate 130 g/ha): 100 | damage to plant (100 = total damage; 0 = no damage), PRE Application ECHCG ([7]; rate 31 g/ha): 60 | damage to plant (100 = total damage; 0 = no damage), PRE Application ECHCG ([7]; rate 130 g/ha): 90

CCS(=O)(=O)Nc1c(OC(F)F)ccc(C(=O)Nc2nnnn2C)c1Cl [Compound 1.064]
percentage damage caused to the plant, POST Application ECHCG [1]: 5 (5=80-100%) | percentage damage caused to the plant, PRE Application ECHCG [1]: 5 (5=80-100%) | percentage damage caused to the plant, POST Application SETFA (Setaria faberi (SETFA)): 5 (5=80-100%) | percentage damage caused to the plant, PRE Application SETFA (Setaria faberi (SETFA)): 4 (4=60-79%) | percentage damage caused to the plant, POST Application IPOHE [2]: 4 (4=60-79%) | percentage damage caused to the plant, PRE Application IPOHE [2]: 2 (2=20-39%) | percentage damage caused to the plant, POST Application ABUTH [8]: 5 (5=80-100%) | percentage damage caused to the plant, PRE Application ABUTH [8]: 5 (5=80-100%) | percentage damage caused to the plant, POST Application AMARE [3]: 5 (5=80-100%) | percentage damage caused to the plant, PRE Application AMARE [3]: 5 (5=80-100%) | percentage damage caused to the plant, POST Application AMAPA [4]: 5 (5=80-100%) | percentage damage caused to the plant, PRE Application AMAPA [4]: 5 (5=80-100%)

CC(C)S(=O)(=O)Nc1c(OC(F)F)ccc(C(=O)Nc2nnnn2C)c1Cl [Compound 1.013]
percentage damage caused to the plant, POST Application ECHCG [1]: 5 (5=80-100%) | percentage damage caused to the plant, PRE Application ECHCG [1]: 5 (5=80-100%) | percentage damage caused to the plant, POST Application SETFA (Setaria faberi (SETFA)): 5 (5=80-100%) | percentage damage caused to the plant, PRE Application SETFA (Setaria faberi (SETFA)): 4 (4=60-79%) | percentage damage caused to the plant, POST Application IPOHE [2]: 5 (5=80-100%) | percentage damage caused to the plant, PRE Application IPOHE [2]: 5 (5=80-100%) | percentage damage caused to the plant, POST Application ABUTH [8]: 5 (5=80-100%) | percentage damage caused to the plant, PRE Application ABUTH [8]: 5 (5=80-100%) | percentage damage caused to the plant, POST Application AMARE [3]: 5 (5=80-100%) | percentage damage caused to the plant, PRE Application AMARE [3]: 5 (5=80-100%)

CCS(=O)(=O)Nc1c(OC(F)(F)F)ccc(C(=O)Nc2nnnn2C)c1C [Compound 1.081]
percentage damage caused to the plant, POST Application ECHCG [1]: 5 (5=80-100%) | percentage damage caused to the plant, PRE Application ECHCG [1]: 5 (5=80-100%) | percentage damage caused to the plant, POST Application SETFA (Setaria faberi (SETFA)): 5 (5=80-100%) | percentage damage caused to the plant, PRE Application SETFA (Setaria faberi (SETFA)): 5 (5=80-100%) | percentage damage caused to the plant, POST Application IPOHE [2]: 5 (5=80-100%) | percentage damage caused to the plant, PRE Application IPOHE [2]: 3 (3=40-59%) | percentage damage caused to the plant, POST Application AMARE [3]: 5 (5=80-100%) | percentage damage caused to the plant, PRE Application AMARE [3]: 5 (5=80-100%) | percentage damage caused to the plant, POST Application AMAPA [4]: 5 (5=80-100%) | percentage damage caused to the plant, PRE Application AMAPA [4]: 5 (5=80-100%) | damage to plant (100 = total damage; 0 = no damage), PRE Application SETFA (SETFA (Setaria faberi); rate 31 g/ha): 20 | damage to plant (100 = total damage; 0 = no damage), PRE Application SETFA (SETFA (Setaria faberi); rate 130 g/ha): 80 | damage to plant (100 = total damage; 0 = no damage), PRE Application IPOHE ([5]; rate 31 g/ha): 40 | damage to plant (100 = total damage; 0 = no damage), PRE Application IPOHE ([5]; rate 130 g/ha): 50 | damage to plant (100 = total damage; 0 = no damage), PRE Application AMARE ([6]; rate 31 g/ha): 90 | damage to plant (100 = total damage; 0 = no damage), PRE Application AMARE ([6]; rate 130 g/ha): 100 | damage to plant (100 = total damage; 0 = no damage), PRE Application ECHCG ([7]; rate 31 g/ha): 60 | damage to plant (100 = total damage; 0 = no damage), PRE Application ECHCG ([7]; rate 130 g/ha): 90
